US11591323B2, “Muscarinic agonists as non-steroidal and non-opioid analgesics and methods of use thereof” (Barry University, priority 2019, dated 2023)
Like-named read-outs stand apart in the source and are kept apart here.

Test system: rat aorta smooth muscle cells (mainly M2, lesser M3)
Experiment: cAMP level in primary culture of rat aorta smooth muscle cells
Assay type: cell-based
Method: Effects of compounds 6A and 7A on both cAMP and IPX levels were also measured in primary cultures of rat aorta smooth muscle cells that express mainly M2 and to a lesser extent M3 receptors (FIG. 6). […] Receptor expression levels are far lower in tested native tissues than in transfected cell lines and vary among tissues, being highest in the striatum and lowest in the submaxillary gland. Relative expression levels of G-proteins are also known to vary among tissues and cell lines. Thus, it is great to see that the pharmacological profile of the new compounds is conserved despite these variations.
Cell culture and membrane preparation: Chinese hamster ovary (CHO) cells stably transfected with the genes of individual human variants of muscarinic receptors were purchased from Missouri S&T cDNA Resource Center (Rolla, Mo., USA). Fresh primary cell culture of smooth muscle cells (SMC) from rat aorta prepared as previously described was kindly provided by Dr. Lucie Bačáková. Primary culture of SMCs was grown to confluency in 75 cm^2 flasks in Dulbecco's modified Eagle's medium supplemented with 10% fetal bovine serum. Up to 6-times, 2 million of cells were sub-cultured. Cell cultures and crude membranes from CHO cells were prepared as described previously (Boulos et al., Chem Biol Drug Des 1-12, 2017). Cells were grown to confluency in 75 cm^2 flasks in Dulbecco's modified Eagle's medium supplemented with 10% fetal bovine serum and 2 million of cells were subcultured in 100 mm Petri dishes. Medium was supplemented with 5 mM butyrate for the last 24 hours of cultivation to increase receptor expression. When needed, cells were cultivated with pertussis toxin at a final concentration of 25 ng/ml for the 24 hours. Cells were detached by mild trypsinization on day 5 after subculture. Detached cells were washed twice in 50 ml of phosphate-buffered saline and 3 min centrifugation at 250×g. Washed cells were suspended in 20 ml of ice-cold incubation medium (100 mM NaCl, 20 mM Na-HEPES, 10 mM MgCl2, pH=7.4) supplemented with 10 mM EDTA and homogenized on ice by two 30 sec strokes using Polytron homogenizer (Ultra-Turrax; Janke & Kunkel GmbH & Co. KG, IKA-Labortechnik, Staufen, Germany) with a 30-sec pause between strokes. Cell homogenates were centrifuged for 30 min at 30,000×g. Supernatants were discarded, pellets suspended in fresh incubation medium, incubated on ice for 30 minutes and centrifuged again. Resulting membrane pellets were kept at −80° C. until assayed within 10 weeks at a maximum.
Measurements of the production of cAMP and inositol phosphates: Levels of second messengers cAMP and inositol phosphates were determined in radiochemical chromatography assays as described previously. To determine level of cAMP, cells in suspension were pre-incubated for 1 h with 0.4 μM [^3H]adenine, washed, and incubated for 10 min in the presence of isobutylmethylxanthine and 10 μM forskolin. […] Incubation was ended by addition of 0.2 ml of 2.5 M HCl to the samples. Samples were applied to alumina columns (1.5 g of alumina per column), washed with 2 ml ammonium acetate (pH=7.0) and eluted from columns with 4 ml ammonium acetate and measured by liquid scintillation spectrometry. […] For this purpose, new CHO cell lines stably expressing promiscuous G15 G-protein and M2 or M4 receptor were generated by transfection with pCMV/hygro vector and hygromycin selection. To determine the rate of formation of inositol phosphates IPX, suspended cells were pre-incubated with 0.1 μM [^3H]myo-inositol for 60 min, washed, and incubated with 10 mM LiCl for 15 min. […] The incubation was stopped by addition of 0.5 ml of chloroform methanol HCl mixture (2:1:0.1). […]

Structure (SMILES) | Maximal inhibition of cAMP synthesis | Maximal inhibition of cAMP synthesis (in words) | cAMP level (in words)
C[N+]1(Cc2cccs2)CC=CCC1.[I-] (centres unmarked) [Compound 7A, 1-methyl-1-[(thiophen-2-yl)methyl]-1,2,3,6-tetrahydropyridin-1-ium iodide] | about 40% | the same as inhibition by carbachol | only inhibited cAMP synthesis
C1=CCN(Cc2cccs2)CC1.Cl [Compound 6A, 1-[(thiophen-2-yl)methyl]-1,2,3,6-tetrahydropyridin-1-ium chloride] | about 40% | the same as inhibition by carbachol | only inhibited cAMP synthesis
C[N+](C)(C)CCOC(N)=O [carbachol, reference compound] | about 40% |  | transient decrease in cAMP level
